{"source": "patent US10799593B2", "about": "“Nanodiamond particle complexes” (priority 2008, dated 2020)", "key": {"RAW 264.7 macrophages": {"tested_on": "RAW 264.7 macrophages", "assay": "Electrophoretic DNA fragmentation assay on Parylene A substrates", "format": "cell-based, murine", "description": "Substrate Preparation. Plain glass slides were sterilized in 70% ethanol and pre-treated with A-174 Silane (SCS COATINGS, Indianapolis, Ind.) adhesion promoter according to manufacturer's protocol. Approximately 20 grams of Parylene A (UNIGLOBE KISCO, White Plains, N.Y.) was loaded into a Parylene deposition system (PDS) 2010 LABCOTER® 2 (SCS COATINGS.) The deposition took place under previously indicated conditions (Kramer et al. 1984, 22, 475, Yang et al. Journal of Crystal Growth 1998, 183, 385, herein incorporated by reference in their entireties). Application of drug to the base layer of Parylene A was accomplished via desiccation of 100 μg dexmnethasone (SIGMA ALDRICH, St Louis, Mo.), or 25 μg doxorubicin (U.S. PHARMACOPIA, Rockville, Md.) under a laminar flow hood. A second layer of 150 mg of Parylene A was deposited over the drug films to produce the eluting layer.\nCell Culture Conditions. Macrophage cell line RAW 264.7 (AICC Manassas, Va.) cells were grown in DMEM media ([…] Inc, Hemdon, Va.) supplemented with 10% FBS (AICC) and 1% Penicillin/Streptomycin (LONZA, Walkersville, Md.). Investigation of inflammation pathways utilized lipo-polysacchmide 5 ng/ml (SIGMA ALDRICH) and resultant expression of IL-6 and TNF-α genes. Analysis of cellular apoptosis was accomplished using agarose electrophoresis of DNA fragmentation.\nElectrophoretic Assay. […]"}, "[1]": {"assay": "Spectroscopic analysis of DOX elution from Parylene A bi-layer", "format": "physicochemical", "conditions": "PBS", "experimental": "Spectroscopy Analysis. […] Samples were placed in a 12 well plate immersed in 1.0 ml of PBS for 10 min, 20 min, 40 min, 1 hour, 4 hour, and 24 hour increments. After each time point the solution was removed and the drug eluting glass disks were transferred to a vacant well and replenished with […] of PBS. Remaining solutions were analyzed in a DU Series 700 UV-Vis Scanning Spectrophotometer (BECKMAN COULTER, Fullerton, Calif.)."}, "[2]": {"tested_on": "RAW 264.7 murine macrophages", "assay": "DNA fragmentation assay on DOX-ND Parylene C devices", "format": "cell-based", "conditions": "16 and 20 hours, DOX positive control 2.5 μg/mL", "experimental": "Materials and Device Fabrication. A conformal 3 g base layer of Parylene C was deposited on pre-cut 2.5 cm×2.5 cm glass slides with a […] COATING SYSTEMS (SCS) PDS 2010 LABCOATER (SCS, Indianapolis, Ind.). The Parylene layer was oxidized via oxygen plasma treatment in a HARRICK Plasma Cleaner/Sterilizer (Ithaca, N.Y.) at 100 W for one minute. A DOX-ND solution was then added to the base layer so that the final DOX-ND concentration in solution was 6.6 μg/ml. Subsequently, solvent evaporation occurred in isolation at room temperature. Following DOX-ND deposition, an ultra-thin 0.15 g palylene C layer was deposited as an elution-limiting and control element. The final layer of Parylene C was treated with oxygen plasma at 100 W for one minute. Parylene C was pyrolized into a gaseous monomer at 690° C., and deposited at room temperature under vacuum conditions for all depositions. The preceding parameters apply to devices fabricated for spectroscopy studies. The present invention is not limited to these parameters. The concentration of DOX-ND was adjusted for devices used in the DNA fragmentation assay so that the final DOX-ND concentration in solution was 33 μg/ml.\nDNA Fragmentation Assay. […]"}, "[3]": {"conditions": "PBS compared with water; Pierstorff et al. 2008; cited from earlier work"}}}
{"smiles": "COc1cccc2c1C(=O)c1c(O)c3c(c(O)c1C2=O)C[C@@](O)(C(=O)CO)C[C@@H]3O[C@H]1C[C@H](N)[C@H](O)[C@H](C)O1", "note": "[DOX, doxorubicin]", "values": [{"measurement": "DNA fragmentation (apoptosis), electrophoretic gel", "setting": "RAW 264.7 macrophages", "result": "fragmentation of DNA indicative of cells actively undergoing apoptosis"}, {"measurement": "release of DOX, additive spectroscopic scans", "setting": "[1]; control: DOX applied to a base layer of Parylene A", "result": "complete release of DOX"}, {"measurement": "release of DOX, additive spectroscopic scans", "setting": "[1]; pinhole sample: DOX between Parylene A layers", "result": "gradual release of DOX"}, {"measurement": "DNA fragmentation / onset of apoptosis", "setting": "[2]", "result": "rigorous DNA fragmentation"}, {"measurement": "solubility", "setting": "[3]", "result": "less soluble in PBS"}]}
